Test results from patent US20240226072A1 (Stichting Het Nederlands Kanker Instituut, priority 2022, published 2024).

Experiments:
[1] = Plasma pharmacokinetics and tissue distribution 2 h after oral cabazitaxel 10 mg/kg with vehicle or 25 mg/kg ritonavir in wild-type, Oatp1a/1b−/−, Oatp1a/1b/2b1−/−, OATP1B1- and OATP1B3-transgenic mice; type: in vivo; details: for Tmax / Cmax / AUC(0-t): male, FVB, mouse, plasma, po, 10 mg/kg; for AUC(0-t): read-out: AUC0-2 h; for enhancement of AUC0-2h by ritonavir: ritonavir 25 mg/kg compared to vehicle group; for CLiver / Cbrain / Pbrain, brain accumulation per h / SIC (% of dose), small intestinal content: 2 h
Protocol: All animals were fasted 2 to 3 hours prior to the start of the experiment to minimize variation in absorption after oral administration. […] Subsequently, cardiac puncture was performed with a heparinized needle and syringe collecting a final blood sample. […] All samples were stored at −30° C. until analysis.
Differences were considered statistically significant when P<0.05. All data are presented as geometric mean±SD.

[2] = Cyp3a−/− compared to wild-type mice; earlier study; cited from earlier work
[3] = in vivo; details: mouse; for AUC(0-t) / AUC0-24 h: po; for AUC(0-t): AUC0-24 h
Protocol: (§1) The Jevtana (10 mg/mL) solution contains 0.26 mg/mL polysorbate 80 and 15% (w/v) ethanol, and is adjusted to pH 2-6 with citric acid. […] The stock solution was further diluted 5-fold with water to reach a 2.5 mg/mL dosing solution for oral administration. The vehicle solution only consists of polysorbate 80, ethanol and water (1:1:8, v/v/v). […] All dosing solutions were prepared freshly on the day of the experiment.
(§2) At the termination time point of 24 hours, mice were anesthetized using an isoflurane evaporator with 3% isoflurane with 0.8 L/min air and 0.3 L/min oxygen. A final blood sample was taken using cardiac puncture, using Eppendorf tubes previously prepared with heparin as an anticoagulant. Subsequently, the anesthetized mice were sacrificed by cervical dislocation and the tissues of interest were collected. Brain, liver, spleen, kidney, small intestine, and testis were collected. The small intestinal content (SIC) was separately collected by removing this from the small intestinal tissue, which was subsequently rinsed with saline to remove possibly fecal residue. The blood samples were centrifuged at 9,000×g for 6 minutes at 4° C., and the plasma fraction was isolated and stored at −30° C. until analysis. Brain, liver, spleen, kidney, small intestinal tissue, SIC, and testis were homogenized in a FastPrep-24™ 5G homogenizer (M. P. Biomedicals, Santa Ana, CA, USA) for 1 min with 1, 3, 1, 2, 3, 2, and 1 mL of 2% (w/v) BSA in Milli-Q water, respectively. Until analysis of the samples, they were all stored at −30° C.
(§3) Pharmacokinetic parameters were estimated by non-compartmental analysis using the software package of PK solutions 2.0.2 (SUMMIT, Research Service). The area under the curve (AUC) of the plasma-concentration time curve for all the compounds was calculated using the linear trapezoidal rule without extrapolating to infinity. The peak plasma concentration (Cmax) and the time to reach peak plasma concentration (Tmax) were obtained directly from the individual raw data. For the statistical analysis and the graphs GraphPad Prism 9 (GraphPad Software Inc., La Jolla, CA, USA) was used. The statistics for the comparison of multiple groups were calculated with the one-way analysis of variance (ANOVA), whereas Sidak's post hoc correction was performed. Log-transformation before statistical analysis was applied, when variances within the groups were not homogeneously distributed. Differences were considered statistically significant when P<0.05. All data are presented as geometric mean±SD.

[4] = in vivo; details: male, mouse; for Kp at 24 h: Brain-to-plasma ratio
Protocol: as §1, §2, §3
The last parameter is in many cases the most useful, as it takes the overall exposure into account.

[5] = input of human simulation, cited from earlier work
[6] = OATP1B3-transgenic mice, vehicle pretreatment, oral 10 mg/kg cabazitaxel
[7] = OATP1B3-transgenic mice, vehicle, cabazitaxel 10 mg/kg oral
[8] = Oatp1a/1b/2b1−/− mice, ritonavir 25 mg/kg oral, cabazitaxel 10 mg/kg oral
[9] = Oatp1a/1b/2b1−/− mice, vehicle pretreatment, oral 10 mg/kg cabazitaxel
[10] = Oatp1a/1b/2b1−/− mice, vehicle, cabazitaxel 10 mg/kg oral
[11] = Oatp1a/1b−/− mice, ritonavir 25 mg/kg oral, cabazitaxel 10 mg/kg oral
[12] = Oatp1a/1b−/− mice, vehicle pretreatment, oral 10 mg/kg cabazitaxel
[13] = Oatp1a/1b−/− mice, vehicle, cabazitaxel 10 mg/kg oral
[14] = wild-type mice, ritonavir 25 mg/kg oral, cabazitaxel 10 mg/kg oral
[15] = wild-type mice, vehicle pretreatment, oral 10 mg/kg cabazitaxel
[16] = wild-type mice, vehicle, cabazitaxel 10 mg/kg oral
[17] = Cyp3aXAV vs Cyp3a−/− (FVB background)
[18] = Cyp3aXAV vs Cyp3a−/− (FVB background), 24 h

Question: What does the source list for `CO[C@H]1C(=O)[C@]2(C)[C@@H](OC)C[C@H]3OC[C@@]3(OC(C)=O)[C@H]2[C@H](OC(=O)c2ccccc2)[C@]2(O)C[C@H](OC(=O)[C@H](O)[C@@H](NC(=O)OC(C)(C)C)c3ccccc3)C(C)=C1C2(C)C` [cabazitaxel]?
Answer: Tmax ([1]; OATP1B3-transgenic mice, ritonavir 25 mg/kg oral, cabazitaxel 10 mg/kg oral): 60 min; Cmax [1, 6]: 2.69 ± 0.761 µM; Tmax [1, 6]: 27.5 min; AUC(0-t) ([1]; OATP1B3-transgenic mice, vehicle pretreatment, oral 10 mg/kg cabazitaxel, 0-2 h): 3.51 ± 1.19 µM·h; Cmax [1, 7]: 2.69 µM; Tmax [1, 7]: 27.5 min; Cmax [1, 8]: 4.27 µM; Tmax [1, 8]: 70 min; Cmax [1, 9]: 2.74 ± 1.1 µM; Tmax [1, 9]: 26.7 min; AUC(0-t) ([1]; Oatp1a/1b/2b1−/− mice, vehicle pretreatment, oral 10 mg/kg cabazitaxel, 0-2 h): 2.88 ± 0.616 µM·h; Cmax [1, 10]: 2.74 µM; Tmax [1, 10]: 26.7 min; Cmax [1, 11]: 4.7 µM; Tmax [1, 11]: 80 min; Cmax [1, 12]: 2.12 ± 0.398 µM; Tmax [1, 12]: 24.2 min; AUC(0-t) ([1]; Oatp1a/1b−/− mice, vehicle pretreatment, oral 10 mg/kg cabazitaxel, 0-2 h): 2.62 ± 0.417 µM·h; Cmax [1, 13]: 2.12 µM; Tmax [1, 13]: 24.2 min; Cmax [1, 14]: 4.53 µM; Tmax [1, 14]: 120 min; Cmax [1, 15]: 2.82 ± 0.694 µM; Tmax [1, 15]: 25.8 min; AUC(0-t) ([1]; wild-type mice, vehicle pretreatment, oral 10 mg/kg cabazitaxel, 0-2 h): 3.28 ± 1.32 µM·h; Cmax [1, 16]: 2.82 µM; Tmax [1, 16]: 25.8 min; AUC(0-t) ([1]; wild-type, wild-type mice, ritonavir 25 mg/kg oral, cabazitaxel 10 mg/kg oral): 7.62 µM·h; AUC(0-t) ([1]; wild-type, wild-type mice, vehicle, cabazitaxel 10 mg/kg oral): 3.28 µM·h; enhancement of AUC0-2h by ritonavir ([1]; transgenic OATP1B1 mice): 2.1 fold; enhancement of AUC0-2h by ritonavir ([1]; transgenic OATP1B3 mice): 1.9 fold; CLiver [1, 14]: 21554 pmol/g; Cbrain [1, 14]: 235 pmol/g; Pbrain, brain accumulation per h [1, 14]: 0.026 h⁻¹; SIC (% of dose), small intestinal content [1, 14]: 1.34 % of dose; CLiver [1, 16]: 2703 pmol/g; Cbrain [1, 16]: 50.0 pmol/g; Pbrain, brain accumulation per h [1, 16]: 0.013 h⁻¹; SIC (% of dose), small intestinal content [1, 16]: 1.14 % of dose; previously observed difference of plasma AUC [2]: approximately 6 fold; increase in AUC0-24h ([3]; male, Cyp3aXAV (FVB background), 10 mg/kg): 10.1 fold; AUC(0-t) ([3]; male, Cyp3aXAV (human CYP3A in Cyp3a−/−, FVB background), 10 mg/kg): 1.24 ± 0.177 µM·h; AUC0-24 h ([3]; male, FVB, Cyp3aXAV, 10 mg/kg): 12.515 µM·h; AUC(0-t) ([3]; male, FVB, Cyp3aXAV, 10 mg/kg): 12.5 ± 5.41 µM·h; AUC0-24 h ([3]; male, FVB, wild-type, 10 mg/kg): 72.771 µM·h; AUC(0-t) ([3]; male, FVB, wild-type, 10 mg/kg): 72.8 ± 2.62 µM·h; alteration in AUC0-24h ([3]; 1 mg/kg): no alteration; Kp at 24 h ([4]; Cyp3aXAV (FVB background), po, 10 mg/kg): 1.52; reduced AUC0-24h [4, 17]: 88.8 fold; reduced Cmax [4, 17]: 12.1 fold; decrease of liver concentration [4, 18]: 341.2 fold; reduction of brain exposure [4, 18]: 167.6 fold; Kp at 24 h ([4]; Cyp3a−/− (FVB background), po, 10 mg/kg): 0.231; Tmax ([4]; Cyp3a−/− (FVB background), po, 10 mg/kg, Tmax): 125 min; Kp at 24 h ([4]; wild-type FVB, po, 10 mg/kg): 1.17; CLint, Intrinsic clearance ([5]; calculated from CL 48.5 and QH 80, sources (17, 18)): 123.17 L/h; IIV CL [5]: 38.8 CV%; Lag-time on Ka ([5]; observed for indinavir PK when co-administered with ritonavir, source (27)): 0.483 h; Ka, First order absorption rate constant ([5]; reported for docetaxel, source (26)): 0.7 h⁻¹; IIV K12 ([5]; source (17)): 84.0 CV%; IIV K13 ([5]; source (17)): 64.2 CV%; IIV K31 ([5]; source (17)): 28.2 CV%; IIV VI ([5]; source (17)): 93.4 CV%; IOV CL ([5]; source (17)): 19.4 CV%; IOV V1 ([5]; source (17)): 45.3 CV%; K12 ([5]; source (17)): 2.48 h⁻¹; K13 ([5]; source (17)): 4.84 h⁻¹; K21 ([5]; source (17)): 0.604 h⁻¹; K31 ([5]; source (17)): 0.0266 h⁻¹; V1 ([5]; source (17)): 26 L
